This passage reports IC50 results from ChEMBL document CHEMBL1135966, “New synthetic analogues of N-acyl homoserine lactones as agonists or antagonists of transcriptional regulators involved in bacterial quorum sensing” (Bioorg Med Chem Lett, 2002).

In general, IC50 refers to the point on the concentration scale where inhibition reaches its midpoint. The low end stands for higher potency, the high end for lower potency.

This assay concerns Aliivibrio fischeri. As to the kind of experiment: Concentration required for 50% inhibition of 3-oxo-C6-HSL-induced luminescence of the biosensor strain.
`O=C(COCc1ccccc1)NC1CCOC1=O` (centres undefined) displayed a half-inhibitory concentration (IC50) of 3000 nM.

`CC(C)(C)CC(=O)CC(=O)NC1CCOC1=O` (centres undefined) gave an IC50 of 15000 nM.

As for `O=C(CCCC1CCCCC1)NC1CCOC1=O` (centres undefined), the IC50 was > 6000 nM. As for `O=C(CC(=O)NC1CCOC1=O)CC1CCCCC1` (centres undefined), the figure is 1100 nM; as for `CCCC(=O)CC(=O)NC1CCOC1=O` (centres undefined), 200 nM.

`COc1ccc(CC(=O)CC(=O)NC2CCOC2=O)cc1` (centres undefined) returned an IC50 of 3000 nM. Take `O=C(CSCc1ccccc1)NC1CCOC1=O` (centres undefined): the IC50 is 2000 nM. Consider `O=C(CCCc1ccccc1)NC1CCOC1=O` (centres undefined), for which the IC50 worked out at 2000 nM. As for `O=C(CC(=O)NC1CCOC1=O)Cc1ccc(Br)cc1` (centres undefined), the figure is 2000 nM; as for `O=C(CC(=O)NC1CCOC1=O)Cc1ccc(C(F)(F)F)cc1` (centres undefined), 10000 nM. As for `CC(C)CC(=O)CC(=O)NC1CCOC1=O` (centres undefined), the figure is 500 nM. The figure for `O=C(CC(=O)NC1CCOC1=O)CC1CCCC1` (centres undefined) is 250 nM; for `O=C(CC(=O)NC1CCOC1=O)Cc1ccc(Cl)cc1` (centres undefined) it is 3000 nM. The compound `O=C(CC(=O)NC1CCOC1=O)Cc1ccccc1Cl` (centres undefined) returned an IC50 of 6000 nM. In the case of `O=C(CC(=O)NC1CCOC1=O)Cc1ccccc1` (centres undefined), the half-inhibitory concentration (IC50) worked out at 2000 nM. The figure for `Cc1ccc(CC(=O)CC(=O)NC2CCOC2=O)cc1` (centres undefined) is 4000 nM. As for `O=C(CC(=O)NC1CCOC1=O)Cc1cccc(Cl)c1` (centres undefined), the figure is 4000 nM; as for `O=C(CC(=O)NC1CCOC1=O)Cc1ccc(F)cc1` (centres undefined), 4000 nM; as for `CCCCCC(=O)NC1CCOC1=O` (centres undefined), > 9000 nM.
